Experimental data: ChEMBL document CHEMBL1909046, “DrugMatrix in vitro pharmacology data”

Experiments:
[1] = DRUGMATRIX: GABAA, Chloride Channel, TBOB radioligand binding (ligand: [3H] TBOB); assay type: cell membranes, Rattus norvegicus, Wistar, Cerebral cortex, Membrane; conditions: Not Active = under 50% inhibition at 10 µM
Melanocortin receptor 3 = Melanocortin receptor 3 (Homo sapiens, UniProt P41968); assay type: cell membranes, HEK293, Membrane; conditions: hek293; also: in other assays of this panel Not Active means under 50% inhibition at 10 µM
[2] = target: T1, Nitric oxide synthase, inducible (Mus musculus, UniProt P29477); parameters: species or system Escherichia coli;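 also: inhibition of iNOS enzyme activity measured with L-arginine as substrate; in other assays of this panel Not Active means under 50% inhibition at 10 µM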
T1 sequence (P29477 whole entry): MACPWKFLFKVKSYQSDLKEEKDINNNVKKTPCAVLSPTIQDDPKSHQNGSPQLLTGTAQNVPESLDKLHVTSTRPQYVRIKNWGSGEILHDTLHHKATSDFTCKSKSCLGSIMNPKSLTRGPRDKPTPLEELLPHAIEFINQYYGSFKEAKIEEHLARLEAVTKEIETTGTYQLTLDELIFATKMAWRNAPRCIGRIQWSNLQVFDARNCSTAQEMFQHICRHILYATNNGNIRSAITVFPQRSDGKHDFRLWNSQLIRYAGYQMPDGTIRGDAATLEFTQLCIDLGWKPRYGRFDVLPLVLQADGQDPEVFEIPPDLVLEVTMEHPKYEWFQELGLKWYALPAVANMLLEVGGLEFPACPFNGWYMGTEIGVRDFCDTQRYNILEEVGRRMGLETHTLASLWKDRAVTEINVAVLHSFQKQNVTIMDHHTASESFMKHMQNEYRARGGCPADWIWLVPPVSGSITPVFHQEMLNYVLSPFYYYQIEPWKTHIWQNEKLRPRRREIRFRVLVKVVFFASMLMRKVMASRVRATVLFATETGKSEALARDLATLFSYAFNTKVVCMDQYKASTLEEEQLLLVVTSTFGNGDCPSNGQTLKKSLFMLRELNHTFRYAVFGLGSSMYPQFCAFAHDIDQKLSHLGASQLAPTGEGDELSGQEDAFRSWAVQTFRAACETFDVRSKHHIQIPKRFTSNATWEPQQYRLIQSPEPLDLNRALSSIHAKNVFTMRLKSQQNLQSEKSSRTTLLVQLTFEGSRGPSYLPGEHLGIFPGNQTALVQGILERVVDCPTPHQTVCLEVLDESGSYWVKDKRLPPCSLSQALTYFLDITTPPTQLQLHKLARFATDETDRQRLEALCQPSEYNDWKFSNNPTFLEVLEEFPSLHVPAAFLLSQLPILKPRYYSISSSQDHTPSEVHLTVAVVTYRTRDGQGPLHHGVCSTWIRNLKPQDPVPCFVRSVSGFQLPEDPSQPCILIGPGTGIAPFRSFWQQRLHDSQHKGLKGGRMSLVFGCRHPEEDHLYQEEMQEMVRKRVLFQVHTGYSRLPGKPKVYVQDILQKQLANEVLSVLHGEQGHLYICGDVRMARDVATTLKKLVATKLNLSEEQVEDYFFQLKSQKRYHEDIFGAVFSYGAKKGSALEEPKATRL

[3] = DRUGMATRIX: Nicotinic Acetylcholine radioligand binding (ligand: [125I] Epibatidine); assay type: cell membranes, Membrane; conditions: imr-32; Not Active = under 50% inhibition at 10 µM
[4] = target: Mitogen-activated protein kinase 1 (Homo sapiens, UniProt P28482); assay: DRUGMATRIX: Protein Serine/Threonine Kinase, ERK2 enzyme inhibition (substrate: Myelin Basic Protein); parameters: species or system Escherichia coli; conditions: Not Active = under 50% inhibition at 10 µM
Endothelin-1 receptor = target: T2, Endothelin-1 receptor (Homo sapiens, UniProt P25101); assay type: cell membranes, CHO-K1, Membrane; conditions: cho-k1; also: in other assays of this panel Not Active means under 50% inhibition at 10 µM
T2 sequence (P25101 whole entry): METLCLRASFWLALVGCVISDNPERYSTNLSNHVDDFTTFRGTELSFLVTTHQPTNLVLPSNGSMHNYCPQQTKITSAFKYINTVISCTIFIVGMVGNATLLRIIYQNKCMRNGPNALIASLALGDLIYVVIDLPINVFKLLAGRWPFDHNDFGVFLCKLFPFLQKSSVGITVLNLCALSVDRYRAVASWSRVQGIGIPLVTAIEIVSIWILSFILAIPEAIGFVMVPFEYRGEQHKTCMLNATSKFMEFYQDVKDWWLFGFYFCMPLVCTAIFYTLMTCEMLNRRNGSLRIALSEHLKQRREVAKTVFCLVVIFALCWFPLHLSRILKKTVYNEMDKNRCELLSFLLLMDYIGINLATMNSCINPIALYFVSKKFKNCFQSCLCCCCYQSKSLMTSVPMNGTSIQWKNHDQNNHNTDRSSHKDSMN

[5] = target: Tyrosine-protein kinase Fyn (Homo sapiens, UniProt P06241); assay: biochemical; assay type: cell-based, Insect cells; conditions: insect cells;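 also: enzymatic inhibition of Fyn kinase activity measured with Poly(Glu:Tyr) as the phosphorylation substrate; in other assays of this panel Not Active means under 50% inhibition at 10 µM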
Sequence of Tyrosine-protein kinase Fyn (P06241 whole entry): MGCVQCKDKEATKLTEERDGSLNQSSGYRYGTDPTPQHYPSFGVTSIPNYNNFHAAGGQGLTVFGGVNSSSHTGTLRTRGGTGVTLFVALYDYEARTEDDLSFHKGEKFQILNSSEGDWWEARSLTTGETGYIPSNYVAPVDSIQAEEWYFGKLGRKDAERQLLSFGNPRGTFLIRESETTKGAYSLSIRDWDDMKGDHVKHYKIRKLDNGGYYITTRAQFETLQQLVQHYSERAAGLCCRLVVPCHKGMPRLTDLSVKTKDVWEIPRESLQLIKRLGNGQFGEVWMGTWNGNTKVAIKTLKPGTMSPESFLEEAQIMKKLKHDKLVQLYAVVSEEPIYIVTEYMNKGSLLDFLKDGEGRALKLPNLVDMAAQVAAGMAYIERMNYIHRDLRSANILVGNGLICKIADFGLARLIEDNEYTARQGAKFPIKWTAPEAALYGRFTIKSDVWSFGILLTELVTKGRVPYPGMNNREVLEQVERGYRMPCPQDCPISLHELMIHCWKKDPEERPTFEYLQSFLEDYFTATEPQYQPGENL

Sequence of Melanocortin receptor 3 (P41968 whole entry): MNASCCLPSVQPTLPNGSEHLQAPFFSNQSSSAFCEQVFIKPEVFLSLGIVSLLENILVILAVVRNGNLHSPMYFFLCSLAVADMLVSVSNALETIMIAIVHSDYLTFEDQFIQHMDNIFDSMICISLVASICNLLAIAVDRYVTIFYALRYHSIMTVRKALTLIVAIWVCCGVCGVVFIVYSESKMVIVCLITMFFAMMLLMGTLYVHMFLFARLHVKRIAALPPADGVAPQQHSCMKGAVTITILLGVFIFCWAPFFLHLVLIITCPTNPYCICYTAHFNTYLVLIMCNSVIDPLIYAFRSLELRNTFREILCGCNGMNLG
Sequence of Mitogen-activated protein kinase 1 (P28482 whole entry): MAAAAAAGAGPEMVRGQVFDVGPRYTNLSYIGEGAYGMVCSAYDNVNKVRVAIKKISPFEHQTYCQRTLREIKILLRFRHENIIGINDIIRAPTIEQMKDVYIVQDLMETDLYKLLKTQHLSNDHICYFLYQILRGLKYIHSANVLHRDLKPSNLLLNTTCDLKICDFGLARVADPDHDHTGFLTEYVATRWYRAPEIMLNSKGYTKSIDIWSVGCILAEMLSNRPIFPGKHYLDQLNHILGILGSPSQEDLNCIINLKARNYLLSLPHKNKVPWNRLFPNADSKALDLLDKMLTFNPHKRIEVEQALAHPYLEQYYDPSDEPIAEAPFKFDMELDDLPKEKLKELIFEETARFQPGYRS

| Compound | IC50 [1] | Ki [1] | IC50 (Melanocortin receptor 3) | IC50 [2] | IC50 [3] | Ki [3] | IC50 ([4]; read-out: IC50) [nM] | IC50 (Endothelin-1 receptor) | IC50 [5] | IC50 [4] | Ki (Melanocortin receptor 3) | Ki [2] | Ki [4] | Ki (Endothelin-1 receptor) | Ki [5] |
| --- | --- | --- | --- | --- | --- | --- | --- | --- | --- | --- | --- | --- | --- | --- | --- |
| CSc1ccc(/C=C2/C(C)=C(CC(=O)O)c3cc(F)ccc32)cc1 [SULINDAC SULFIDE] | Not Active | Not Active | Not Active | Not Active | Not Active | Not Active | 1090 | Not Active | Not Active |  |  |  |  |  |  |
| Nc1c2c(nc3ccccc13)CCCC2 [TACRINE] | Not Active | Not Active | Not Active | Not Active | Not Active | Not Active |  | Not Active | Not Active | Not Active |  |  |  |  |  |
| Nc1nc2nc[nH]c2c(=S)[nH]1 [THIOGUANINE] | Not Active | Not Active | Not Active | Not Active | Not Active | Not Active |  | Not Active | Not Active | Not Active |  |  |  |  |  |
| Cc1cccc(N(C)C(=S)Oc2ccc3ccccc3c2)c1 [TOLNAFTATE] | Not Active | Not Active | Not Active | Not Active | Not Active | Not Active |  | Not Active | Not Active | Not Active |  |  |  |  |  |
| NC[C@H]1CC[C@H](C(=O)O)CC1 [TRANEXAMIC ACID] | Not Active | Not Active | Not Active | Not Active | Not Active | Not Active |  | Not Active | Not Active | Not Active |  |  |  |  |  |
| CC1(C)O[C@@H]2C[C@H]3[C@@H]4CCC5=CC(=O)C=C[C@]5(C)[C@@]4(F)[C@@H](O)C[C@]3(C)[C@]2(C(=O)CO)O1 [TRIAMCINOLONE ACETONIDE] | Not Active | Not Active | Not Active | Not Active | Not Active | Not Active |  | Not Active | Not Active | Not Active |  |  |  |  |  |
| NS(=O)(=O)c1cc2c(cc1Cl)NC(C(Cl)Cl)NS2(=O)=O (configuration not stated) [TRICHLORMETHIAZIDE] | Not Active | Not Active | Not Active | Not Active | Not Active | Not Active |  | Not Active | Not Active | Not Active |  |  |  |  |  |
| Cc1c(C)c2c(c(C)c1O)CCC(C)(COc1ccc(CC3SC(=O)NC3=O)cc1)O2 (configuration not stated) [TROGLITAZONE] | Not Active | Not Active | Not Active | Not Active | Not Active | Not Active | 1240 | Not Active | Not Active |  |  |  |  |  |  |
| N[C@@H]1[C@H]2CN(c3nc4c(cc3F)c(=O)c(C(=O)O)cn4-c3ccc(F)cc3F)C[C@@H]12 [TROVAFLOXACIN] | Not Active | Not Active | Not Active | Not Active | Not Active | Not Active |  | Not Active | Not Active | Not Active |  |  |  |  |  |
| N#CC(C#N)=Cc1ccc(O)c(O)c1 [TYRPHOSTIN 23] | Not Active | Not Active | Not Active | Not Active | Not Active | Not Active |  | Not Active | Not Active | Not Active |  |  |  |  |  |
| CC[C@]1(O)C[C@H]2CN(CCc3c([nH]c4ccccc34)[C@@](C(=O)OC)(c3cc4c(cc3OC)N(C=O)[C@H]3[C@@](O)(C(=O)OC)[C@H](OC(C)=O)[C@]5(CC)C=CCN6CC[C@]43[C@@H]65)C2)C1 [VINCRISTINE] | Not Active | Not Active | Not Active | Not Active | Not Active | Not Active |  | Not Active | Not Active | Not Active |  |  |  |  |  |
| CCCOc1ccccc1-c1nc2nn[nH]c2c(=O)[nH]1 [ZAPRINAST] | Not Active | Not Active | Not Active | Not Active | Not Active | Not Active |  | Not Active | Not Active | Not Active |  |  |  |  |  |
| SODIUM NITROPRUSSIDE | Not Active | Not Active | Not Active | Not Active | Not Active | Not Active |  | Not Active | Not Active | Not Active | Not Active | Not Active | Not Active | Not Active | Not Active |
